Where two headings read alike, the source gives them in different places.
Experiments:
IKKβ = target: T1, IKKβ (Homo sapiens, UniProt O14920); assay: CEREP/Eurofins kinase inhibition, IKKβ; type: biochemical; settings: read-out: % Inhibition of Control Values
T1 construct: purchased CEREP/Eurofins
Procedure: (§1) Kinases and caspases activities in presence of 1 µM of compound 1 were carried out by CEREP/Eurofins (Celle-Lévescault). The activity of compound 1 on the different kinases and caspases was compared to control values. Data are expressed as percentages of inhibition of control values.

IKKε = target: T2, IKKε (Homo sapiens, UniProt Q14164); assay: CEREP/Eurofins kinase inhibition, IKKε; type: biochemical; settings: read-out: % Inhibition of Control Values
T2 construct: purchased CEREP/Eurofins
Procedure: as §1

TNFα/TNFRII = target: T3, TNFα/TNFRII (Homo sapiens, UniProt P01375); assay: TNFα-TNFRII binding ELISA; type: biochemical
T3 construct: purchased R&D Systems
Procedure: (§2) Microtiter plates were coated with 12.5 ng of TNFRI or TNFRII in 125 μl of PBS per well at 37 °C. The wells were washed, blocked with PBS/BSA 2% for three hours and washed as before. Serial dilutions of compounds were mixed with a fixed quantity of TNFα in PBS/BSA 1% and incubated two hours at 37 °C. 125 μl of the mix were added to the wells and plates were incubated overnight at 4 °C. Wells were washed incubated with 37.5 ng of TNFα biotinylated antibody in 125 μl of PBS/BSA 1% for two hours at 37 °C. Wells were washed and incubated with avidin-HRP (1:500) in 125 μl of PBS/BSA 1% for 30 minutes at 37 °C, 5% CO2. After washing, TMB solution was added to wells, quenched with 63 μl of 1 M H2SO4 solution. Absorbance was measured at 450 nm.

p38δ kinase = target: T4, p38δ kinase (Homo sapiens, UniProt O15264); assay: CEREP/Eurofins kinase inhibition, p38δ; type: biochemical; settings: read-out: % Inhibition of Control Values
T4 construct: purchased CEREP/Eurofins
Procedure: as §1

caspase 3 activation = assay: Caspase-Glo 3 activation assay; type: cell-based; settings: dose dependent
Procedure: (§3) Caspases 3 and 8 activation was determined using Caspase-Glo® 3 and Caspase-Glo-8® assays kits (Promega) according to the manufacter’s procedures. After 8 hours of treatment, plates were equilibrated at room temperature. 100 μl Caspase-Glo 3® and Caspase-Glo 8® reagent were added to each well. Luminescence was read on a FLUOstar OPTIMA reader.

IKKα = target: T5, IKKα (Homo sapiens, UniProt O15111); assay: CEREP/Eurofins kinase inhibition, IKKα; type: biochemical; settings: read-out: % Inhibition of Control Values
T5 construct: purchased CEREP/Eurofins
Procedure: as §1

Balb/C mice = assay: LPS/D-Galactosamine induced lethal shock (TNFα-dependent hepatic shock model); type: in vivo
Procedure: 7 weeks-old Balb/C mice were force-fed with 100 μl of a solution of DMSO containing various doses of compound 1 (5 mg down to 0.5 mg) eight hours before receiving an intraperitoneal injection of 200 μl of PBS containing 0.1 μg of LPS and 20 mg of D-Galactosamine. A control group (DMSO) was force-fed with 100 μl of a solution of DMSO alone eight hours before to be injected with 200 μl of LPS/D-Galactosamine solution. Mice survival was monitored for 48 hours after the injection of LPS/D-Galactosamine.
7 weeks-old Balb/C mice were forced-fed with a solution of DMSO containing 5 mg of compound 1 eight hours before receiving an intraperitoneal injection of 200 μl of PBS containing 0.1 μg of LPS and 20 mg of D-Galactosamine. Eight hours after LPS/D-Galactosamine injection, mice were sacrificed by cervical dislocation and livers were harvested, fixed in 4% formalin and embedded in paraffin. […] Slides were scanned with a slide scanner (Perkin Elmer) and analyzed with Pannoramic viewer (3D HISTECH).
7 weeks-old Balb/C mice were forced-fed with a solution of DMSO containing 5 mg of compound 1 eight hours before receiving an intraperitoneal injection of 200 μl of PBS containing 0.1 μg of LPS and 20 mg of D-Galactosamine. Three hours after LPS/D-Galactosamine injection, mice were anesthetized with ketamine/xylazine to recover blood by cardiac puncture. Sera were kept at −80 °C until assay.
TNFα in serum was quantified using U-CyTech biosciences kits (Utrecht, The Netherlands) according to manufacturer’s procedures.
7 weeks-old Balb/C mice were forced-fed with a solution of DMSO containing 5 mg of compound 1 eight hours before receiving an intraperitoneal injection of 200 μl of PBS containing 0.1 μg of LPS and 20 mg of D-Galactosamine. Eight hours after, mice were anesthetized by an injection of ketamine/xylazine to recover blood by cardiac puncture. Sera were kept at −80 °C until assay. Quantification of AST/ALT was performed using Architec ci 8200 analyser (Abbott) with reagent kits from Abbott.

TNFα [1] = target: T6, TNFα (Homo sapiens, UniProt P01375); assay: Intrinsic tryptophan fluorescence of TNFα; type: binding; settings: 0.5 μM TNFα; 20–100 µM range
T6 construct: purchased R&D Systems
Procedure: All samples were brought to 10 mM phosphate buffer, 0.05% Tween20, 1% DMSO. Fluorescence readings were made with a Quantamaster QM4CW spectrofluorimeter (Photon Technology International), by exciting TNFα at 290 nm and measuring the emission peaks at 322 nm. Compound 1 inner filter effects were corrected using absorbance measurements of compound alone solutions at 290 nm and 322 nm.

Bioavailability = type: in vivo; settings: mouse, oral
JNK1 = target: T7, JNK1 (Homo sapiens, UniProt P45983); assay: CEREP/Eurofins kinase inhibition, JNK1; type: biochemical; settings: JNK1, 1 μM; read-out: % Inhibition of Control Values
T7 construct: purchased CEREP/Eurofins
Procedure: as §1

[2] = test system: murine TNFα-induced apoptosis on L929 cells; assay: Neutralization of murine TNFα induced apoptosis in L929 cells; type: cell-based; settings: Mus musculus
Procedure: (§4) 80% confluent L929 cells were plated in flat bottom plates at 4 × 10^5 cells per well in 100 μl of DMEM medium containing 10% FBS, 2 mM L-Glutamine, 100 U/ml Penicillin − 100 μg/ml Streptomycin and incubated for one night at 37 °C, 5% CO2. TNFα or TNFβ (150 pg/ml), Actinomycin D (4 μg/ml) and the compounds at different concentrations (ranging from 100 μM to 0.8 μM) were mixed in 150 μl DMEM medium 1% FBS, 2 mM L-Glutamine, 100 U/ml Penicillin−100 μg/ml Streptomycin in U-bottom plates. After two hours incubation at 37 °C, 5% CO2, 100 μl of the mix was added to the plated cells and incubated at 37 °C, 5% CO2 for 24 hours. Supernatants were discarded and 100 μl of MTT at 0.5 mg/ml were added to wells. After two hours, supernatants were discarded and 200 μl of DMSO were then added. Plates were read at 570 nm with a spectrophotometer providing the optical density (OD) of each well. The percentage of neutralization of TNFα by a compound was calculated using equation 3:3 %Neutra=ODcompound−ODTNFα/ODcells−ODTNFα×100
(§5) An IC50 could be computed from the percentage of neutralization for each compound.

p38α kinase = target: T8, p38α kinase (Homo sapiens, UniProt Q16539); assay: CEREP/Eurofins kinase inhibition, p38α; type: biochemical; settings: read-out: % Inhibition of Control Values
T8 construct: purchased CEREP/Eurofins
Procedure: as §1

[3] = test system: TNFβ induced apoptosis in L929 cell line; assay: Neutralization of TNFβ induced apoptosis in L929 cells (MTT); type: cell-based
Procedure: as §4, §5

TNFα/TNFRI = target: T9, TNFα/TNFRI (Homo sapiens, UniProt P01375); assay: TNFα-TNFRI binding ELISA; type: biochemical
T9 construct: purchased R&D Systems
Procedure: as §2

p38γ kinase = target: T10, p38γ kinase (Homo sapiens, UniProt P53778); assay: CEREP/Eurofins kinase inhibition, p38γ; type: biochemical; settings: read-out: % Inhibition of Control Values
T10 construct: purchased CEREP/Eurofins
Procedure: as §1

Caspase 3 = target: T11, Caspase 3 (Homo sapiens, UniProt P42574); assay: CEREP/Eurofins caspase inhibition, Caspase 3; type: biochemical; settings: Caspase 3, 1 μM; read-out: % Inhibition of Control Values
T11 construct: purchased CEREP/Eurofins
Procedure: as §1

[4] = test system: CXCL1 secretion by L929 cells; assay: CXCL1 secretion in L929 supernatants after TNFα stimulation (ELISA); type: cell-based, murine; settings: TNFα (5 ng/ml)
Procedure: Cells were plated at 2.5 × 10^5 cells/well in 24-well plates and treated as indicated. Eight hours later, supernatants were recovered and kept at −20 °C for later use. The concentration of murine CXCL1 was measured in supernatants with a dosage ELISA kit obtained from R&D Systems (Lille, France) according to the manufacter’s procedures.

[5] = test system: IκB kinases (IKK), JNK1, p38 and Syk, caspase 3, caspase 8; assay: Direct inhibition of kinases and caspases related to the TNFα pathway (CEREP/Eurofins panel); type: biochemical; settings: at 1 µM
Procedure: as §1

[6] = Solubility in aqueous solvents; type: physicochemical
Caspase 8 = target: T12, Caspase 8 (Homo sapiens, UniProt Q14790); assay: CEREP/Eurofins caspase inhibition, Caspase 8; type: biochemical; settings: Caspase 8, 1 μM; read-out: % Inhibition of Control Values
T12 construct: purchased CEREP/Eurofins
Procedure: as §1

[7] = test system: human TNFα induced apoptosis on the L929 cell line; assay: Neutralization of human TNFα induced apoptosis in L929 cells (MTT); type: cell-based; settings: human TNFα, read-out: IC50, inhibition of TNFα induced apoptosis
Procedure: as §4, §5

TNFα [8] = target: T6, TNFα; assay: Surface Acoustic Wave (SAW) biosensor gravimetric measurement of dissociation constants; type: binding; settings: for Kd: two-site binding model, room temperature
Procedure: Gravimetric measurements were performed using surface acoustic wave (SAW) sensors. TNFα solutions were prepared by diluting 10 µg of lyophilized TNFα in 1 ml of PBS. They were kept in the freezer (at −18 °C) and put at room temperature just before their further grafting onto the gold surface area of the SAW sensor.
Phase shift variations (ΔΦ) versus compound concentration (C) were fitted using equation 1 ΔΦ=Φsat×C/Kd+C where Φsat represents the maximum sensor’s response to the compound binding and Kd represents the equilibrium dissociation constant.
In the case of a two-site binding, equation 2 was used for fitting:2 ΔΦ=Φsat,1×C/Kd1+C+Φsat,2×C/Kd2+C
where Φsat1 and Φsat2 are related to the maximum sensor’s response for each binding site and Kd1 and Kd2 are their respective dissociation constants.

[9] = test system: TNFα induced NF-κB activation in HEK cells; assay: HEK-Blue TNFα NF-κB secreted embryonic alkaline phosphatase reporter assay; type: cell-based, human; settings: Homo sapiens, HEK293; HEK cell line expressing TNFRI; read-out: IC50, TNFα signaling NF-κB reporter
Procedure: 80% confluent HEK-Blue™ TNFα were plated in flat bottom plates at 5 × 10^4 per well in 100 μl of DMEM containing 2 mM L-Glutamine, 100 U/ml Penicillin − 100 μg/ml Streptomycin and incubated at 37 °C, 5% CO2. Serial dilutions of compounds (ranging from 100 μM to 0.8 μM) were mixed with 400 pg/ml of human TNFα in DMEM containing 2% of FBS, 2 mM L-Glutamine, 100 U/ml Penicillin−100 μg/ml Streptomycin in U-bottom plates. After two hours of incubation at 37 °C, 5% CO2, 100 μl of the mix was added to the plated cells and incubated 24 hours at 37 °C, 5% CO2. 20 μl of supernatants were incubated for 3 hours with 180 μl of QUANTI-Blue™ to reveal secretion of phosphatase alcaline and plates were read at 620 nm with a spectrophotometer providing the optical density (OD).

Syk = target: T13, Syk (Homo sapiens, UniProt P43405); assay: CEREP/Eurofins kinase inhibition, Syk; type: biochemical; settings: read-out: % Inhibition of Control Values
T13 construct: purchased CEREP/Eurofins
Procedure: as §1

caspase 8 activation = assay: Caspase-Glo 8 activation assay; type: cell-based; settings: dose dependent
Procedure: as §3

[10] = livers eight hours after LPS/D-Galactosamine

T6 sequence (P01375 77-233 limits assumed): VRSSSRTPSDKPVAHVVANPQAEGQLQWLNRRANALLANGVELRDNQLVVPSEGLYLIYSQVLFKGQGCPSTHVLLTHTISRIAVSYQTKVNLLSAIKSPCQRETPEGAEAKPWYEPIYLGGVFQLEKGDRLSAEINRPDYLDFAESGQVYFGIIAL
T12 sequence (Q14790 217-374 limits assumed): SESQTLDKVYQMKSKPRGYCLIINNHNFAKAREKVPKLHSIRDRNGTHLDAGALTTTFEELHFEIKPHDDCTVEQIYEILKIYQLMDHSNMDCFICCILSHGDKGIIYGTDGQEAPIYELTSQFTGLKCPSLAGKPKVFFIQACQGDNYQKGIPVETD
T5 sequence (O15111 whole entry): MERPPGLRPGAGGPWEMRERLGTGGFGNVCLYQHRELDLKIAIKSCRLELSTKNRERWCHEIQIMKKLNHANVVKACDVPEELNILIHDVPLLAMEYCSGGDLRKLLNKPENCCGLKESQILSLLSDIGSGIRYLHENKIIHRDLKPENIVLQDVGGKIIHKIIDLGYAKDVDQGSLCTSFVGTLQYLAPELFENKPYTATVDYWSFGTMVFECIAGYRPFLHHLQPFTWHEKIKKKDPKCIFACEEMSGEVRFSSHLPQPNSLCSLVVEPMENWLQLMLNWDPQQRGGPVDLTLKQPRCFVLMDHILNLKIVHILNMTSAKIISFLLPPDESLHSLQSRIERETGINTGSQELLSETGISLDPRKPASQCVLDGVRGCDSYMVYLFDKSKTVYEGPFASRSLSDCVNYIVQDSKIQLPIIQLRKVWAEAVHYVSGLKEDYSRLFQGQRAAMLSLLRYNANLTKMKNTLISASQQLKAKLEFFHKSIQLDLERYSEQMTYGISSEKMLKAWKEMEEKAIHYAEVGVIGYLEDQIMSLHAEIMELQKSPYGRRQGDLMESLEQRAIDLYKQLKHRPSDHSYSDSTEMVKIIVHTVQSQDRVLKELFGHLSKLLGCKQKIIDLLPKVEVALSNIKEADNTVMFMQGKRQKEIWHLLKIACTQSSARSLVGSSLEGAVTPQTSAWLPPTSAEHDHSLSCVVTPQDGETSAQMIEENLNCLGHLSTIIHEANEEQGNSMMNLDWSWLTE
T10 sequence (P53778 whole entry): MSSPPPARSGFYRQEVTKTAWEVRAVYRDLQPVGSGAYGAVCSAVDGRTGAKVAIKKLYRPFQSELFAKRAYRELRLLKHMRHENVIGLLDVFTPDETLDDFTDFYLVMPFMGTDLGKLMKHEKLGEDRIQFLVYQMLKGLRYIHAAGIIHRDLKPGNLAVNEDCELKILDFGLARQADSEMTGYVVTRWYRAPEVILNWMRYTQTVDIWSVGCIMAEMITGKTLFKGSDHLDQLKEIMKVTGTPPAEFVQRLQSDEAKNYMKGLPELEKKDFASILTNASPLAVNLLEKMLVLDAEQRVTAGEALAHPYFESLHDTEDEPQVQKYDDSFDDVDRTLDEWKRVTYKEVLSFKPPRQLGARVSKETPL
T8 sequence (Q16539 whole entry): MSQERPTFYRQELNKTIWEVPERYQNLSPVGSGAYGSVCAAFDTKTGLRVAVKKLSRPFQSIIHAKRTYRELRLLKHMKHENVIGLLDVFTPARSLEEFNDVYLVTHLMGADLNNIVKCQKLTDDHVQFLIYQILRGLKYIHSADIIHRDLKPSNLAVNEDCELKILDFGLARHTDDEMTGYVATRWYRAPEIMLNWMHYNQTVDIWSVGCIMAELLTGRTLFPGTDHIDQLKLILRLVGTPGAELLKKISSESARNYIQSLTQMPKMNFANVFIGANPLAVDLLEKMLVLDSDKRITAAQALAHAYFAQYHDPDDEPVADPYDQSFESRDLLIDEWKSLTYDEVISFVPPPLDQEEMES
T11 sequence (P42574 29-175 limits assumed): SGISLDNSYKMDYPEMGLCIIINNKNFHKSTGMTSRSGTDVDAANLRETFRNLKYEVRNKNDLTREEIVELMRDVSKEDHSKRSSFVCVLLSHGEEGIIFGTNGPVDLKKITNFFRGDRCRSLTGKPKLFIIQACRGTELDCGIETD
T7 sequence (P45983 whole entry): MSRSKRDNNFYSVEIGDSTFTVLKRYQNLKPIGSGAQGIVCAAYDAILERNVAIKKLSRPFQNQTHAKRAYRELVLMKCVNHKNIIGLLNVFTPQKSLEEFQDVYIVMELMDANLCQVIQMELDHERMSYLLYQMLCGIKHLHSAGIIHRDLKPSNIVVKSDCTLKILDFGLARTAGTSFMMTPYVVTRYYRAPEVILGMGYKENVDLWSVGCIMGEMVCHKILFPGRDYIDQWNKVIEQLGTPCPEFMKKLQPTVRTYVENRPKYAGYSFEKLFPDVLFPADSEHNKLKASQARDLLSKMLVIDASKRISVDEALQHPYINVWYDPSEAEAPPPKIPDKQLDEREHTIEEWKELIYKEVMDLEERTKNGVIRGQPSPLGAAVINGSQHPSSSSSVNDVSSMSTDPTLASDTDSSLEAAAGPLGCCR
T1 sequence (O14920 whole entry): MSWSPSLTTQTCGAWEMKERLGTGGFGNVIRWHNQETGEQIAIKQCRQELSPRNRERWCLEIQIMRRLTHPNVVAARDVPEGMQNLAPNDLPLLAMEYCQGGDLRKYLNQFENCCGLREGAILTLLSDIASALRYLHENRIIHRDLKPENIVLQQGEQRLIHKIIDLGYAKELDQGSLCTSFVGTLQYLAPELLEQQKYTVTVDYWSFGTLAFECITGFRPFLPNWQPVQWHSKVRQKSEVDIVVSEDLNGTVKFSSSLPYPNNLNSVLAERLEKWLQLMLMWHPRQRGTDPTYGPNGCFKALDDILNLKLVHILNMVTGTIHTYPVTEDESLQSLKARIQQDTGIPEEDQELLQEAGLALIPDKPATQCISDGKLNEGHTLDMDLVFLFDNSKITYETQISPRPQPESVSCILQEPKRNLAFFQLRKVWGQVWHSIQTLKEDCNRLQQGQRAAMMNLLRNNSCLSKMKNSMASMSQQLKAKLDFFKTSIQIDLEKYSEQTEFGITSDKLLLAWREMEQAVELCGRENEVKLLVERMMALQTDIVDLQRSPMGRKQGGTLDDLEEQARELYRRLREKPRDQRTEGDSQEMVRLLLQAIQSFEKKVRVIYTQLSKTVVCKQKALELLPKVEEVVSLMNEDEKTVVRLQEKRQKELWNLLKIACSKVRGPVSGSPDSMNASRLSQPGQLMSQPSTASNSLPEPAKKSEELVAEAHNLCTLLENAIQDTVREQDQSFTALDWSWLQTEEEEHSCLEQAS
T2 sequence (Q14164 whole entry): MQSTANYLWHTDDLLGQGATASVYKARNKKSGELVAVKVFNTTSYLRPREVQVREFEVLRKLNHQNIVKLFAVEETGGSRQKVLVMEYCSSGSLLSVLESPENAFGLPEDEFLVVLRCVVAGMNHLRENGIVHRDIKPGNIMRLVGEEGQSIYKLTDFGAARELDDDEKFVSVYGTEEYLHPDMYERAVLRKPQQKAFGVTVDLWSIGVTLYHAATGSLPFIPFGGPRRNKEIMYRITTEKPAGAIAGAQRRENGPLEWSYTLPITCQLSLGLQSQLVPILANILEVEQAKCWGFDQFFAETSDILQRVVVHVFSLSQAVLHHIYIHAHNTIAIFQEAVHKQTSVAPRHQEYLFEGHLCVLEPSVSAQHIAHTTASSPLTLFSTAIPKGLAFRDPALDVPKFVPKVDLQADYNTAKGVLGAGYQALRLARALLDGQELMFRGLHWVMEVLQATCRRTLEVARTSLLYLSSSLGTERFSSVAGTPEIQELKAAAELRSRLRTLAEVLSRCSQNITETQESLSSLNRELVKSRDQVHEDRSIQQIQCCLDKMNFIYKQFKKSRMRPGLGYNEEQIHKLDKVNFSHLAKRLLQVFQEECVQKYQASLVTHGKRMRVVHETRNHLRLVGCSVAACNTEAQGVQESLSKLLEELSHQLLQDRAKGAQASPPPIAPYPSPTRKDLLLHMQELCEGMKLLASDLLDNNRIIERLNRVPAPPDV
T9 sequence (P01375 77-233 limits assumed): as the sequence (P01375 77-233 limits assumed) above
T3 sequence (P01375 77-233 limits assumed): as above
T4 sequence (O15264 whole entry): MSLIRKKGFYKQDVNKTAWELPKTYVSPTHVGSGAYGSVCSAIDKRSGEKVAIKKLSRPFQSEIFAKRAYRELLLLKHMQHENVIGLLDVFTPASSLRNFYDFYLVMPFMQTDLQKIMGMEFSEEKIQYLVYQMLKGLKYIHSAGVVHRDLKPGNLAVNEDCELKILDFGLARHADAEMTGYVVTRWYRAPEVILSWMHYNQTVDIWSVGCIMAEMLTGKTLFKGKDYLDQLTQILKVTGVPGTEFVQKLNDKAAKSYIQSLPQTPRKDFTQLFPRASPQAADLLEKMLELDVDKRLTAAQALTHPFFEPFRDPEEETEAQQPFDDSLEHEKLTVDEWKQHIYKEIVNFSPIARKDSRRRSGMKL

Cc1c(Cl)cccc1N(CC(=O)N1CCN(Cc2ccccc2)CC1)S(=O)(=O)c1ccccc1 [Compound 1]
inhibition at 1 µM (IKKβ): 10.3%
inhibition at 1 µM (IKKε): 7.3%
IC50 (TNFα/TNFRII): 31 µM
inhibition at 1 µM (p38δ kinase): -1.8%
activation of caspase 3 (caspase 3 activation): blocked the activation
inhibition at 1 µM (IKKα): 3.2%
expression of cleaved caspase 3 in liver (immunohistochemistry) (Balb/C mice; [10]): reduced expression of cleaved caspase 3
liver damage and hemorrhage (H&E histopathology) (Balb/C mice; [10]): reduced liver damage and hemorrhage
mice survival / protection from shock (Balb/C mice; oral 5 mg per mouse eight hours before shock): fully protective effect
mice serum level of AST/ALT (Balb/C mice; oral 5 mg, eight hours after shock): diminished
mice serum level of TNFα (Balb/C mice; oral 5 mg, three hours after shock): did not affect
modification of intrinsic tryptophan fluorescence of TNFα (TNFα [1]): dose dependent manner
bioavailability (Bioavailability): low bioavailability
inhibition at 1 µM (JNK1): -3%
IC50 [2]: ~10 µM
inhibition at 1 µM (p38α kinase): 1.5%
maximal survival ([3]; TNFβ, at 100 μM): 40%
IC50 ([3]; read-out: IC50, inhibition of TNFβ induced apoptosis): 28 µM
IC50 (TNFα/TNFRI): 37 µM
inhibition at 1 µM (p38γ kinase): -11%
inhibition at 1 µM (Caspase 3): -1.8%
CXCL1 in supernatants [4]: significantly less CXCL1
effect on kinases and caspases related to the TNFα pathway [5]: no significant effect
solubility in aqueous solvents [6]: moderate solubility
inhibition at 1 µM (Caspase 8): -7.3%
IC50 ([7]; L929, L929 cell line): 12 µM
IC50 ([7]; L929 cell line): ~10 µM
ligand efficiency LE1 (TNFα [8]; from Kd1): 0.22
ligand efficiency LE2 (TNFα [8]; from Kd2): 0.37
Kd (TNFα [8]; read-out: Kd1 of TNFα/compound 1 complex): 4.79 ± 1.12 µM
Kd (TNFα [8]; read-out: Kd2 of TNFα/compound 1 complex): 0.00231 ± 0.00103 µM
IC50 [9]: 10 µM
inhibition at 1 µM (Syk): -6.9%
activation of caspase 8 (caspase 8 activation): blocked the activation
